Measurements from paper PMC2806265, “Divergence of allosteric effects of rapacuronium on binding and function of muscarinic receptors” (BMC Pharmacology, 2009).
Where two headings read alike, the source gives them in different places.

Tests used:
M2 muscarinic receptor [1] = target: T1, M2 muscarinic receptor (Homo sapiens, UniProt P08172); assay: [35S]GTPγS binding to membranes; assay type: biochemical; set-up: host or cells: CHO cells, stably transfected; membrane preparation; conditions: for EMAX of ACh on [^35S]GTPγS binding: fold of basal
T1 sequence (P08172 1-466): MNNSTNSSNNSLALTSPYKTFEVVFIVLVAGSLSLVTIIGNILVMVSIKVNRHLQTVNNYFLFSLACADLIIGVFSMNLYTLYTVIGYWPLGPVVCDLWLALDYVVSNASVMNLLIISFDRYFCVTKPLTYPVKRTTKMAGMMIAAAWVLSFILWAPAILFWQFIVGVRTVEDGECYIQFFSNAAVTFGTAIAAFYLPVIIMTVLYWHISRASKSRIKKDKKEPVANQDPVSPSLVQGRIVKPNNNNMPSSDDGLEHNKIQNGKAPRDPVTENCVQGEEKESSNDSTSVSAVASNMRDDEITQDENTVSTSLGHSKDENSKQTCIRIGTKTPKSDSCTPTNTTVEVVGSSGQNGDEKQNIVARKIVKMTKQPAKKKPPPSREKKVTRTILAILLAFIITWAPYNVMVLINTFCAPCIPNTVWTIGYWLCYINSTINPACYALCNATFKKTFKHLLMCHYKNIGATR
Experimental: (§3) For determination of [^35S]GTPγS binding to G-proteins in membranes a final concentration of 200 pM (M1, M3 and M5 receptors) or 500 pM (M2 and M4 receptors) of [^35S]GTPγS was used. Incubation medium was supplemented with 5 μM (M1, M3 and M5 receptors) or 50 μM (M2 and M4 receptors) GDP. […] Incubation with [^35S]GTPγS was carried out for 20 min and free ligand was removed by filtration as described above. Filtration and washing with ice-cold water lasted for 9 s (wash-aspirate button time).

M5 muscarinic receptor [2] = target: T2, M5 muscarinic receptor (Homo sapiens, UniProt P08912); assay: [3H]NMS saturation binding
T2 sequence (P08912 1-532): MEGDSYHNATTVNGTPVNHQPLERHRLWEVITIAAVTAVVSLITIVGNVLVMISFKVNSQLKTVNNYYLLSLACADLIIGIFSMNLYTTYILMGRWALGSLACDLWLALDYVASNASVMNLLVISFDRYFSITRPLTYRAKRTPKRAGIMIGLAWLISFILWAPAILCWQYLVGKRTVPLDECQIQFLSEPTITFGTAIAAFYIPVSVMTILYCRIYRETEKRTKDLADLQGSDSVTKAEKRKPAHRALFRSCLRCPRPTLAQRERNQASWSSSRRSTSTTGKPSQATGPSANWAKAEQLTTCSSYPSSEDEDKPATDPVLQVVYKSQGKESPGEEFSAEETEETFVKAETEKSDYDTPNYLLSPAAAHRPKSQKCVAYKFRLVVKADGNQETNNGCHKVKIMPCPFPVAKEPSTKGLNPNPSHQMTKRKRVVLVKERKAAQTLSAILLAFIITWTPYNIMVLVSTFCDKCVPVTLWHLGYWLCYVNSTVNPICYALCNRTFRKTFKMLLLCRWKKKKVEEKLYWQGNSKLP

M3 muscarinic receptor [3] = target: T3, M3 muscarinic receptor (Homo sapiens, UniProt P20309); assay: Effect of rapacuronium on high-affinity 20 nM [3H]ACh binding
T3 construct: host or cells: CHO cells, stably transfected; membranes
T3 sequence (P20309 whole entry): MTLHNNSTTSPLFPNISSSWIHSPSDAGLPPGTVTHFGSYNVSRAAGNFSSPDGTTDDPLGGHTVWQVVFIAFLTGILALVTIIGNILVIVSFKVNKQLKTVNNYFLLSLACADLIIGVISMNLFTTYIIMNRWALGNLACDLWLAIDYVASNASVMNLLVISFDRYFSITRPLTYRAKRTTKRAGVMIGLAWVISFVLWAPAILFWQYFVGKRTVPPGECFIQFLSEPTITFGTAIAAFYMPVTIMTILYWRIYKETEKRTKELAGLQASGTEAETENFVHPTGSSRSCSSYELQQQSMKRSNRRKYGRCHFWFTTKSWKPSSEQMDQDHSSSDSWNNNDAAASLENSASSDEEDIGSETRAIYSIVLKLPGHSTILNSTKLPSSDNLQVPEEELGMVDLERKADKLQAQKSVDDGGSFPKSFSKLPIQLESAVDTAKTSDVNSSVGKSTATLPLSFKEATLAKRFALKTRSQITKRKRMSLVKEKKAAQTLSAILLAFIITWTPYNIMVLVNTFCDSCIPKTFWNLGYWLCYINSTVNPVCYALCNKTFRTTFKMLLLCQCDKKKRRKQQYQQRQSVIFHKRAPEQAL
Source text: (§1) Cooperativity factor greater than 1 denotes negative cooperativity and less than 1 positive cooperativity. Due to its log-normal error distribution factors of cooperativity are expressed as negative logarithms (pα) through the manuscript so negative values denotes negative cooperativity and positive value denotes positive cooperativity.

M1 muscarinic receptor [4] = target: T4, M1 muscarinic receptor (Homo sapiens, UniProt P11229); assay: as above
T4 construct: host or cells: CHO cells, stably transfected; membrane preparation
T4 sequence (P11229 1-460): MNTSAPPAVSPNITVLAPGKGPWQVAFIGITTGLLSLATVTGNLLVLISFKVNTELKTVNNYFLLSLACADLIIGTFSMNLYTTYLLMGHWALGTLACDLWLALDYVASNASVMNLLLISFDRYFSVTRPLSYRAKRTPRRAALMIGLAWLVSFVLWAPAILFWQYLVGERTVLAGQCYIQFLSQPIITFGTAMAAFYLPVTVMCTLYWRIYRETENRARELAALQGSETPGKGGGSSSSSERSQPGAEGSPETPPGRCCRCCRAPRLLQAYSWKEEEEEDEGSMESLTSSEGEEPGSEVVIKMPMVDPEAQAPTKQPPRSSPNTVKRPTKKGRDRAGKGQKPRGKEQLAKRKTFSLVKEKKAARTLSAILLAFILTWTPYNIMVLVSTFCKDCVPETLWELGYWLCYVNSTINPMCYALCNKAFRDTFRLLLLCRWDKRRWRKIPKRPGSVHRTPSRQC
Source text: as §1

M3 muscarinic receptor [5] = target: T3, M3 muscarinic receptor; assay: Effect of rapacuronium on 1 nM [3H]NMS binding
Source text: as §1

M1 muscarinic receptor [6] = target: T4, M1 muscarinic receptor; assay: Effect of rapacuronium on 1 nM [3H]NMS binding
Source text: as §1

[7] = test system: M1 to M5 muscarinic receptors; assay: [35S]GTPγS binding, statements over several subtypes; conditions: rapacuronium alone
Experimental: as §3

M3 muscarinic receptor [8] = target: T3, M3 muscarinic receptor; assay type: binding
Source text: (§2) BMAX, maximum binding capacity; KD, equilibrium dissociation constant.

M1 muscarinic receptor [9] = target: T4, M1 muscarinic receptor; assay type: binding
Source text: as §2

M2 muscarinic receptor [10] = target: T1, M2 muscarinic receptor; assay: Effect of rapacuronium on high-affinity 20 nM [3H]ACh binding; set-up: host or cells: CHO cells, stably transfected; membrane preparation
Source text: as §1

M5 muscarinic receptor [11] = target: T2, M5 muscarinic receptor; assay: [3H]ACh saturation binding; set-up: host or cells: CHO cells, stably transfected; membranes
Source text: as §2

[12] = M3, negative value = negative cooperativity
[13] = read-out: pKA of rapacuronium (converted)
[14] = M1, negative value = negative cooperativity

C=CC[N+]1([C@H]2C[C@H]3[C@@H]4CC[C@H]5C[C@H](OC(C)=O)[C@@H](N6CCCCC6)C[C@]5(C)[C@H]4CC[C@]3(C)[C@H]2OC(=O)CC)CCCCC1 [rapacuronium]
EMAX of ACh on [^35S]GTPγS binding (M2 muscarinic receptor [1]; + 0.1 μM rapacuronium): 3.10 ± 0.15 | EMAX of ACh on [^35S]GTPγS binding (M2 muscarinic receptor [1]; + 1 μM rapacuronium): 2.93 ± 0.13 | EMAX of ACh on [^35S]GTPγS binding (M2 muscarinic receptor [1]; + 10 μM rapacuronium): 2.46 ± 0.18 | EMAX of rapacuronium on [^35S]GTPγS binding (M2 muscarinic receptor [1]; rapacuronium alone, normalized to absence of rapacuronium): 0.84 ± 0.06 | EC50 (M2 muscarinic receptor [1]; rapacuronium alone, read-out: pEC50 of rapacuronium on [^35S]GTPγS binding (converted)): 28.2 µM | BMAX of [^3H]NMS (M5 muscarinic receptor [2]; + 10 μM rapacuronium): 1.53 ± 0.15 fmol/μg of protein | BMAX of [^3H]NMS (M5 muscarinic receptor [2]; + 100 μM rapacuronium): 1.33 ± 0.13 fmol/μg of protein | pα, cooperativity with [^3H]ACh high affinity binding (M3 muscarinic receptor [3]; [12]): -1.26 ± 0.05 | Kd (M3 muscarinic receptor [3]; [13]): 15.8 µM | pα, cooperativity with [^3H]ACh high affinity binding (M1 muscarinic receptor [4]; [14]): -1.30 ± 0.07 | Kd (M1 muscarinic receptor [4]; [13]): 4.27 µM | pα, cooperativity with [^3H]NMS (M3 muscarinic receptor [5]; [12]): -1.11 ± 0.05 | Kd (M3 muscarinic receptor [5]; [13]): 17.8 µM | pα, cooperativity with [^3H]NMS (M1 muscarinic receptor [6]; [14]): -1.08 ± 0.05 | Kd (M1 muscarinic receptor [6]; [13]): 4.27 µM | maximal lowering of [^35S]GTPγS binding ([7]; even-numbered subtypes): ~15% | maximal lowering of [^35S]GTPγS binding ([7]; odd-numbered subtypes): approximately 25% | BMAX of [^3H]NMS (M3 muscarinic receptor [8]; + 10 μM rapacuronium): 1.67 ± 0.14 fmol/μg of protein | BMAX of [^3H]NMS (M3 muscarinic receptor [8]; + 100 μM rapacuronium): 1.59 ± 0.16 fmol/μg of protein | BMAX of [^3H]NMS (M1 muscarinic receptor [9]; + 10 μM rapacuronium): 2.03 ± 0.15 fmol/μg of protein | BMAX of [^3H]NMS (M1 muscarinic receptor [9]; + 100 μM rapacuronium): 1.85 ± 0.17 fmol/μg of protein | pα, cooperativity with [^3H]ACh high affinity binding (M2 muscarinic receptor [10]; M2, negative value = negative cooperativity): -1.46 ± 0.08 | Kd (M2 muscarinic receptor [10]; [13]): 2.82 µM | BMAX of [^3H]ACh (M5 muscarinic receptor [11]; + 10 μM rapacuronium): 0.33 ± 0.03 fmol/μg of protein | BMAX of [^3H]ACh (M5 muscarinic receptor [11]; + 100 μM rapacuronium): 0.34 ± 0.06 fmol/μg of protein
